One compound from article PMC9448382, “Fluorosulfate-containing pyrazole heterocycles as selective BuChE inhibitors: structure-activity relationship and biological evaluation for the treatment of Alzheimer’s disease” (Journal of Enzyme Inhibition and Medicinal Chemistry, 2022) can be followed below.

In one data set the target is T1, hBuChE from human serum (Homo sapiens, UniProt P06276).
T1 construct: purchased Sigma B4186; host or cells: human serum (per result head)
As to the kind of experiment: hBuChE inhibition assay. The data set is classed as biochemical. The conditions noted are these: mean ± SEM. The method, then:
With 0.1 M pH 8 PBS, a DTNB solution (5 μM) was produced. Dissolve the test compound in DMSO to prepare a concentration of 2 × 10^−1 M stock solution. The solution was diluted in ethanol to five concentrations of 200, 100, 10, 1 and 0.1 μM, respectively. Measurement was carried out with 96-well plates, add 40 μL buffer, 10 μL test compound at a series of concentrations, and 10 μL AChE/BuChE in sequence. The mixture was then incubated at 37 °C for 10 min. Then add 20 μL DTNB, incubation at 37 °C for 10 min. […] For the blank value, 10 μL of ethanol was used instead of the inhibitor solution. The percentage of enzyme activity and the logarithm of compound concentration were used to express the inhibitory activity of compounds. IC50 was calculated by SPSS17.0.

The next data set concerns the target T2, AChE from electric eel (Electrophorus electricus, UniProt O42275).
T2 construct: AChE from electric eel (C3389-500UN; Sigma); purchased Sigma C3389-500UN
As to the kind of experiment: EeAChE inhibition assay (Ellman's method). The data set is classed as biochemical. The conditions noted are these: read-out: AChE % inhibition at 20 µM, 20 µM, na = no inhibitory activity at 20 µM. The method, then:
(§1) According to Ellman's method, assays were carried out on AChE from electric eel (C3389-500UN; Sigma) and BuChE from horse serum (C4290-1KU; Sigma). On a final volume of 500 μL, the experiment was carried out in 48-well plates. EeAChE or eqBuChE, 0.036 U/mL, and 0.1 M pH 8 phosphate buffer were added to each well. At 37 °C, they were pre-incubated for 20 min at various chemical concentrations. […] Along with the enzymatic breakdown of ACh or BuCh, the DTNB creates the yellow anion 5-thio-2-nitrobenzoic acid. In a Biotek Synergy HTX Multi-Mode reader, changes in absorbance were detected at 410 nm. Inhibition curves were used to calculate the IC50 values (log inhibitor concentration vs percent of inhibition). The same conditions were used in a control experiment without the inhibitor, and the blank comprised buffer, DMSO, DTNB, and substrate.
(§2) The IC50 values were calculated by SPSS 17.0.

The target in another data set is T3, BuChE from horse serum (Equus caballus, UniProt P81908).
T3 construct: BuChE from horse serum (C4290-1KU; Sigma); purchased Sigma C4290-1KU; host or cells: horse serum
T3 sequence (P81908 whole entry): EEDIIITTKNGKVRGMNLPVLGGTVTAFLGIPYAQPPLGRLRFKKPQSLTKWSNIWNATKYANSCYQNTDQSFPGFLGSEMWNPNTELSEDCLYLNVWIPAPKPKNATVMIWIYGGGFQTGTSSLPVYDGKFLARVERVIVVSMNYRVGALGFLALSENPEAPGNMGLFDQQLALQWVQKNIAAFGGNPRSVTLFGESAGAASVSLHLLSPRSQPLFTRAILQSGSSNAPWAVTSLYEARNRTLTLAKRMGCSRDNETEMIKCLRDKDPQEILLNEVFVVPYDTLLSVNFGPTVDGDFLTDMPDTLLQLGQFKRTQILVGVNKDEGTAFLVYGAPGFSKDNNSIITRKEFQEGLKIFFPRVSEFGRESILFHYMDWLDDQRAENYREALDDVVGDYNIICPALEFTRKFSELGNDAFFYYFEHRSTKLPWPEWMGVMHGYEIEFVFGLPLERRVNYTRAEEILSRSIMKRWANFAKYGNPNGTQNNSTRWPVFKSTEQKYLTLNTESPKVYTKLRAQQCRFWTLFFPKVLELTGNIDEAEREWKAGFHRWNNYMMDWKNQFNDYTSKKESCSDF
Nature of the data set: biochemical. It counts as biochemical. The method, then: as §1, §2

A further data set relates to male ICR mice. The conditions noted are these: Day 3 to Day 14.
A short description of the next data set: in vitro. From the text: Based on prior work[40]^,[41], a parallel artificial membrane permeation assay (PAMPA) for the blood-brain barrier (BBB) was used to determine the ability of the test chemical to penetrate into the brain. Six commercial medicines were purchased from Aladdin Reagents to validate the methodology. Energy Chemical provided the DMSO and dodecane. Avanti Polar Lipids provided the porcine brain lipid (PBL). Millipore provided the donor 96-well filter microplate with a PVDF membrane (pore size […]) and the acceptor indented 96-well microplate. Corning Inc. provided the 96-well UV plate (COSTAR). DMSO was used to dissolve commercial medications and test compounds at a concentration of 20 mg/mL. They were then diluted 200 times in a solution of PBS (pH 7.4 ± 0.1)/EtOH (70/30, v/v) to achieve a final concentration of 100 µg/mL. The donor microplate's fifilter membrane was coated with 4 µL of PBL in dodecane (20 mg/mL). The donor wells were then filled with 200 µL of diluted chemical solution and 300 µL of PBS/EtOH (70/30, v/v). To make the membrane contact with buffer solution, the donor fifilter plate was carefully positioned on top of the acceptor plate to form a “sandwich” assembly. At 25 °C, the sandwich was left undisturbed. The donor plate was carefully removed after 18 h of incubation, and the concentrations of test chemicals in the donor and acceptor wells were quantified using a UV plate spectroscopic reader (PerkinElmer VICTOR Nivo, Finland). Each sample was analysed at three wavelengths, in at least three independent experiments, in four wells.
Pe, permeability, refers to the ability of compounds to permeate the membranes through passive diffusion in the blood-brain barrier penetration assays.

What is called IC50 is the concentration that inhibits the measured activity by half. In general, inhibition refers to the relative decrease from the control value, in per cent. As a reminder, the Papp is the rate of passage across a membrane or cell layer, normalised by area and donor concentration. The low end stands for slow passage, the high end for fast passage.

Each structure is given as a SMILES string.

T2 sequence (O42275 24-633): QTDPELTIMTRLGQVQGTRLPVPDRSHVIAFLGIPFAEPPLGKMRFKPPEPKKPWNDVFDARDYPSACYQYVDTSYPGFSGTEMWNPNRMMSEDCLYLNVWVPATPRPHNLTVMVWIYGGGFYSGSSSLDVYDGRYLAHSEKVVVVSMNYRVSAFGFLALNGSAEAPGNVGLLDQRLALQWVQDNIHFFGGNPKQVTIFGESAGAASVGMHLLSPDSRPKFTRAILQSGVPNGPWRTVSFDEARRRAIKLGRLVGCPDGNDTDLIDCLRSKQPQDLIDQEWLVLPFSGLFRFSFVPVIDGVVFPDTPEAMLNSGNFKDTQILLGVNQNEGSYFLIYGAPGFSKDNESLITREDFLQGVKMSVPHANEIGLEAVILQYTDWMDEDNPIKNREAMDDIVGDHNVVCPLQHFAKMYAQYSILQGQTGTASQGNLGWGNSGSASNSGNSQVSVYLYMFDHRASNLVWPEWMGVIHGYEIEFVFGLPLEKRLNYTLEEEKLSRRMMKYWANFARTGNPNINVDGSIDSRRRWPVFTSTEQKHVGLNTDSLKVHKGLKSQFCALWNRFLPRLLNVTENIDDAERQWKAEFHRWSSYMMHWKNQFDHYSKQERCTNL
T1 sequence (P06276 29-602): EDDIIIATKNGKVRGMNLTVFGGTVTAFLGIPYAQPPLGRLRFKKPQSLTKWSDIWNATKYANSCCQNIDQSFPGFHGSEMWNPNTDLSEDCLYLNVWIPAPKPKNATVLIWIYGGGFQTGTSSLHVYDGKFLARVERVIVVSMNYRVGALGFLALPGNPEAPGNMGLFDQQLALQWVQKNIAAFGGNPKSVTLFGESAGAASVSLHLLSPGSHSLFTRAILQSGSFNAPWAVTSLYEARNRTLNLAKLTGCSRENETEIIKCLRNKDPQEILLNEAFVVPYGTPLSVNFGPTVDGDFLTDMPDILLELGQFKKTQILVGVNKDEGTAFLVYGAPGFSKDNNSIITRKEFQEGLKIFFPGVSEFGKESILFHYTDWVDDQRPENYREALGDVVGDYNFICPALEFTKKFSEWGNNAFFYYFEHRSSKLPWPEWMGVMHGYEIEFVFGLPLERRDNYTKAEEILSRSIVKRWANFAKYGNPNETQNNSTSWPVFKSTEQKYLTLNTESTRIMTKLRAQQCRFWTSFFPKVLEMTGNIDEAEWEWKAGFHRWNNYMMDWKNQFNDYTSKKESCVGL
Excerpt for male ICR mice: The National Institutes of Health Guide for the Care and Use of Laboratory Animals was followed for all experiments. The Animal Care and Use Committee of Anhui Medical University adopted the Measures for the Care and Treatment of Laboratory Animals. In Anhui Medical University's animal centre, male ICR mice were employed (Hefei). […] Throughout all of the experiments, the room's ambient temperature and relative humidity (50%) remained constant. […] 8‒10 animals were used in each study group. The experimental time was from 08: 00 to 14: 00, and the mice were sacrificed by cervical dislocation shortly after the experiment ended. […] Aβ1–42 aggregation was induced by dissolving the Aβ1–42 peptide in DMSO as a stock solution of 5 mM and incubating it in saline at a final concentration of 2 mg/mL for 24 h at 37 °C.

Regarding `O=S(=O)(F)Oc1cc(-c2ccccc2)nn1-c1ccc(Cl)cc1` [Compound K3], the IC50 on hBuChE from human serum was determined as 6.59 ± 3.54 µM; at BuChE from horse serum, 0.79 ± 0.32 µM. For the same compound, the inhibition at 20 µM on AChE from electric eel turned out to be 26.3 ± 1.4%. For the same compound, the “effect on body weight during administration” value in the data set on male ICR mice (10 mg/kg po) was “no effect on body weight increase”. In addition, in the data set on male ICR mice (Aβ1–42 10 µg icv, K3 10 mg/kg po, donepezil 15 mg/kg po), the “effect on Aβ1–42-induced cognitive dysfunction (MWM)” value was “significantly improved”. In the data set “in vitro” (PAMPA, pH 7.4), this compound yielded a Papp of 7.2 ×10⁻⁶ cm/s. In the data set “in vitro” (PAMPA-BBB, 18 h, 25 °C, three independent experiments), the “Pe Exp. value” was “above 4 ×10^-6cm/s”.
